Earlier results on one compound are cited in patent US20070135444A1, “Treatment of neuroblastoma” (priority 2002, published 2007).

For this data set the following is noted: pediatric phase I trial; no maximal dose tolerated reached up to this dose.

As for `CS(=O)(=O)O.Cc1ccc(NC(=O)c2ccc(CN3CCN(C)CC3)cc2)cc1Nc1nccc(-c2cccnc2)n1` [SALT I], the maximal dose tolerated was > 570 mg/m^2/day.
